Measurements reported in patent US11964953B2, “Substituted aminothiazoles as DGKzeta inhibitors for immune activation” (Bayer Aktiengesellschaft, priority 2020, dated 2024).

target: human DGKζ (Homo sapiens (Human), UniProt Q13574); assay: Human DGKζ kinase activity inhibition assay (ADP-Glo); format: biochemical; details: IC50, in vitro human DGKζ kinase activity inhibition assay
Method in brief: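 Enzyme was C-terminally FLAG-tagged full-length recombinant human DGKζ from baculovirus-infected insect cells. Substrate preparation used octyl-β-D-glucopyranoside in 50 mM MOPS pH 7.4 with sonication; ADP generated was quantified by ADP-Glo luminescence as activity measure.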

Chain of human DGKζ (Q13574 other isoform, or with tags, fused parts or gaps): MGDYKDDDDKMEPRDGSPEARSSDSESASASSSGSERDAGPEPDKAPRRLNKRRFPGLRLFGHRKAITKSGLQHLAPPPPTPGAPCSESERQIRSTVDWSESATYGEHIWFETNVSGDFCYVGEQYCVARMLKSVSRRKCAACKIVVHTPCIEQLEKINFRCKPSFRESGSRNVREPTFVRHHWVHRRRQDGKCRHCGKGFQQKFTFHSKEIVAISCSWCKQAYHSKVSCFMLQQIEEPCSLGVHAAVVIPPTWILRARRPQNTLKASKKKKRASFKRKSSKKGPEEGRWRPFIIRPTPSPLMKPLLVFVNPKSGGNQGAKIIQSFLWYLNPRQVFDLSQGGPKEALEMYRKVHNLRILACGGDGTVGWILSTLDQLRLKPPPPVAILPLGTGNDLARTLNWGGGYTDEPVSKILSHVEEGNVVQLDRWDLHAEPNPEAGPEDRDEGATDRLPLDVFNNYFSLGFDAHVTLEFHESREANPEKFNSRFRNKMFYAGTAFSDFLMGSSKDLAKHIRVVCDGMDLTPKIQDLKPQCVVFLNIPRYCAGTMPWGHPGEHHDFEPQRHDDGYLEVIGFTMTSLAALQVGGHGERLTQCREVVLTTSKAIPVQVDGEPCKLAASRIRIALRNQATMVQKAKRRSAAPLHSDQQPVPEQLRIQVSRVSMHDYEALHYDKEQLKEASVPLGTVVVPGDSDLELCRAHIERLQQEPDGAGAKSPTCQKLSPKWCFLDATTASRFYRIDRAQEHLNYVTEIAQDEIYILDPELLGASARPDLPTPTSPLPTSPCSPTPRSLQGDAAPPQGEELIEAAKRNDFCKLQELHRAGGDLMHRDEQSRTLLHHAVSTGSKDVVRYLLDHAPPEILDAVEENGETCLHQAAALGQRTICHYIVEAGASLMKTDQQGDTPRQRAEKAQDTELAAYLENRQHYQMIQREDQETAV

Structure (SMILES) | IC50 [nM]
Cc1cccc(N(C)C(=O)COc2ccc(C(=O)c3sc(N(c4ccc(F)cc4)C(C)C(N)=O)nc3N)cc2)c1 (racemic) [Example 140, rac-2-(N-[4-amino-5-[4-[2-(N,3-dimethylanilino)-2-oxo-ethoxy]benzoyl]thiazol-2-yl]-4-fluoro-anilino)propanamide] | 37.5

same assay, conditions: in vitro human DGKζ kinase activity inhibition assay; read-out: IC50

Structure (SMILES) | IC50 [nM]
COc1ccc(CNC(=O)COc2ccc(C(=O)c3sc(N(c4ccc(F)cc4)C(C)C(N)=O)nc3N)cc2)cc1 (racemic) [Example 124, rac-2-(N-[4-amino-5-[4-[2-[(4-methoxyphenyl)methylamino]-2-oxo-ethoxy]benzoyl]thiazol-2-yl]-4-fluoro-anilino)propanamide] | 48.3
CC(NC(=O)COc1ccc(C(=O)c2sc(N(c3ccc(F)cc3)C(C)C(N)=O)nc2N)cc1)c1ccccc1 (racemic) [Example 125, 2-(N-[4-amino-5-[4-[2-oxo-2-(1-phenylethylamino)ethoxy]benzoyl]thiazol-2-yl]-4-fluoro-anilino)propanamide] | 44
CC(C(N)=O)N(c1ccc(F)cc1)c1nc(N)c(C(=O)c2ccc(OCC(=O)NC3CCCC3)cc2)s1 (racemic) [Example 132, rac-2-(N-[4-amino-5-[4-[2-(cyclopentylamino)-2-oxo-ethoxy]benzoyl]thiazol-2-yl]-4-fluoro-anilino)propanamide] | 93.3
CC(C(N)=O)N(c1ccc(F)cc1)c1nc(N)c(C(=O)c2ccc(OCC(=O)N3CCc4ccccc4C3)cc2)s1 (racemic) [Example 133, rac-2-(N-[4-amino-5-[4-[2-(3,4-dihydro-1H-isoquinolin-2-yl)-2-oxo-ethoxy]benzoyl]thiazol-2-yl]-4-fluoro-anilino)propanamide] | 42.5
CC(C(N)=O)N(c1ccc(F)cc1)c1nc(N)c(C(=O)c2ccc(OCC(=O)N3Cc4ccccc4C3)cc2)s1 (racemic) [Example 134, rac-2-(N-[4-amino-5-[4-(2-isoindolin-2-yl-2-oxo-ethoxy)benzoyl]thiazol-2-yl]-4-fluoro-anilino)propanamide] | 76.8
CC(C(N)=O)N(c1ccc(F)cc1)c1nc(N)c(C(=O)c2ccc(OCC(=O)N(C)Cc3cccnc3)cc2)s1 (racemic) [Example 137, rac-2-(N-[4-amino-5-[4-[2-[methyl(3-pyridylmethyl)amino]-2-oxo-ethoxy]benzoyl]thiazol-2-yl]-4-fluoro-anilino)propanamide] | 238
Cc1ccccc1N(C)C(=O)COc1ccc(C(=O)c2sc(N(c3ccc(F)cc3)C(C)C(N)=O)nc2N)cc1 (racemic) [Example 138, rac-2-(N-[4-amino-5-[4-[2-(N,2-dimethylanilino)-2-oxo-ethoxy]benzoyl]thiazol-2-yl]-4-fluoro-anilino)propanamide] | 61.6
Cc1ccc(N(C)C(=O)COc2ccc(C(=O)c3sc(N(c4ccc(F)cc4)C(C)C(N)=O)nc3N)cc2)cc1 (racemic) [Example 139, rac-2-(N-[4-amino-5-[4-[2-(N,4-dimethylanilino)-2-oxo-ethoxy]benzoyl]thiazol-2-yl]-4-fluoro-anilino)propanamide] | 56.9
CC(C(N)=O)N(c1ccc(F)cc1)c1nc(N)c(C(=O)c2ccc(OCC(=O)NCC(O)CO)cc2)s1 (racemic) [Example 147, 2-(N-[4-amino-5-[4-[2-((2RS),3-dihydroxypropylamino)-2-oxo-ethoxy]benzoyl]thiazol-2-yl]-4-fluoro-anilino)propanamide] | 291
Cc1nc(N(c2ccc(F)cc2)C(C)C(N)=O)sc1C(=O)c1ccccc1 (racemic) [Example 156, rac-2-(N-(5-benzoyl-4-methyl-thiazol-2-yl)-4-fluoro-anilino)propanamide] | 231

Second part, the molecule after the results:

IC50 [nM] | Structure (SMILES)
740 | CC(C(N)=O)N(c1ccc(F)cc1)c1nc(N)c(C(=O)c2ccc(OCC(=O)N3CCC(N(C)C)CC3)cc2)s1 (racemic) [Example 136, rac-2-(N-[4-amino-5-[4-[2-[4-(dimethylamino)-1-piperidyl]-2-oxo-ethoxy]benzoyl]thiazol-2-yl]-4-fluoro-anilino)propanamide]
389 | CC(C(N)=O)N(c1ccc(F)cc1)c1nc(N)c(C(=O)c2ccc(OCC(=O)NCC(C)(C)C)cc2)s1 (racemic) [Example 141, rac-2-(N-[4-amino-5-[4-[2-(2,2-dimethylpropylamino)-2-oxo-ethoxy]benzoyl]thiazol-2-yl]-4-fluoro-anilino)propanamide]
200 | CC(C(N)=O)N(c1ccc(F)cc1)c1nc(N)c(C(=O)c2ccc(OC(C)(C)C(N)=O)cc2)s1 (racemic) [Example 155, rac-2-[4-[4-amino-2-(N-(2-amino-1-methyl-2-oxo-ethyl)-4-fluoro-anilino)thiazole-5-carbonyl]phenoxy]-2-methyl-propanamide]
190 | CC(C(N)=O)N(c1ccc(F)cc1)c1nc(N)c(C(=O)c2ccc(O)cc2)s1 (racemic) [Example 157, rac-2-(N-[4-amino-5-(4-hydroxybenzoyl)thiazol-2-yl]-4-fluoro-anilino)propanamide]
180 | CC(C(N)=O)N(c1ccc(F)cc1)c1nc(N)c(C(=O)c2ccc(OCC(=O)Nc3ncnc4[nH]ncc34)cc2)s1 (racemic) [Example 131, rac-2-(N-[4-amino-5-[4-[2-oxo-2-(1H-pyrazolo[3,4-d]pyrimidin-4-ylamino)ethoxy]benzoyl]thiazol-2-yl]-4-fluoro-anilino)propanamide]
97.1 | CC1CCN(C(=O)COc2ccc(C(=O)c3sc(N(c4ccc(F)cc4)C(C)C(N)=O)nc3N)cc2)CC1 (racemic) [Example 129, rac-2-(N-[4-amino-5-(4-[2-(4-methyl-1-piperidyl)-2-oxo-ethoxy]benzoyl]thiazol-2-yl]-4-fluoro-anilino)propanamide]
73.1 | CC(C(N)=O)N(c1ccc(F)cc1)c1nc(N)c(C(=O)c2ccc(OCC(=O)N(C)CCc3ccccc3)cc2)s1 (racemic) [Example 127, rac-2-(N-[4-amino-5-[4-[2-[methyl(2-phenylethyl)amino]-2-oxo-ethoxy]benzoyl]thiazol-2-yl]-4-fluoro-anilino)propanamide]
72.2 | CC1CCCN(C(=O)COc2ccc(C(=O)c3sc(N(c4ccc(F)cc4)C(C)C(N)=O)nc3N)cc2)C1 (racemic) [Example 128, 2-(N-[4-amino-5-[4-[2-(3-methyl-1-piperidyl)-2-oxo-ethoxy]benzoyl]thiazol-2-yl]-4-fluoro-anilino)propanamide]
55.6 | CC(C)NC(=O)C(C)(C)Oc1ccc(C(=O)c2sc(N(c3ccc(F)cc3)C(C)C(N)=O)nc2N)cc1 (racemic) [Example 154, rac-2-[4-[4-amino-2-(N-(2-amino-1-methyl-2-oxo-ethyl)-4-fluoro-anilino)thiazole-5-carbonyl]phenoxy]-N-isopropyl-2-methyl-propanamide]
49.5 | CC(C(N)=O)N(c1ccc(F)cc1)c1nc(N)c(C(=O)c2ccc(OCC(=O)N(C)Cc3ccco3)cc2)s1 (racemic) [Example 135, rac-2-(N-[4-amino-5-[4-[2-[2-furylmethyl(methyl)amino]-2-oxo-ethoxy]benzoyl]thiazol-2-yl]-4-fluoro-anilino)propanamide]
28.8 | Cc1ccc(CNC(=O)COc2ccc(C(=O)c3sc(N(c4ccc(F)cc4)C(C)C(N)=O)nc3N)cc2)cc1 (racemic) [Example 126, rac-2-(N-[4-amino-5-[4-[2-oxo-2-(p-tolylmethylamino)ethoxy]benzoyl]thiazol-2-yl]-4-fluoro-anilino)propanamide]
